According to the SangsterLogP compilation:

Assay: method code SF, from DOI: 10.1021/jm00326a002, PMID: 14332653

SMILES	logP
COC(=O)CCC(C)=O	-0.13
COC(=O)CCCCC(C)=O	0.55

Assay: method code SF-AS, from DOI: 10.1021/jm00326a002, PMID: 14332653

SMILES	logP
ClCCc1ccccc1	2.95
C#Cc1ccccc1	2.53
N#CCCc1ccccc1	1.72
CC(=O)Cc1ccccc1	1.44
CCCCSC#N	2.03
BrCCCc1ccccc1	3.72
CN(C)CCCc1ccccc1	2.73
COC(=O)CCCc1ccccc1	2.77
C=CCCC(C)=O	1.02
COC(=O)Cc1ccccc1	1.83
CC(=O)CCCc1ccccc1	2.42
FCCCc1ccccc1	2.95
NC(=O)CCc1ccccc1	0.91
BrCCc1ccccc1	3.09
COCCCc1ccccc1	2.7
c1ccc2ncccc2c1	2.03
NC(=O)CCCc1ccccc1	1.41
COC(=O)CCc1ccccc1	2.32
CC(=O)OCCc1ccccc1	2.3
N#CCCCc1ccccc1	2.21

Assay: method code SF-GLC, from DOI: 10.1021/jm00326a002, PMID: 14332653

SMILES	logP
CC(=O)CCC1CC1	1.5
